Data taken from patent publication US20240158370A1, “CK1 alpha AND DUAL CK1 alpha / GSPT1 DEGRADING COMPOUNDS” (Innovo Therapeutics, Inc., priority 2022, published 2024).

Tests used:
CK1α = target: T1, CK1α (Homo sapiens, UniProt P48729+Q96SW2); test: HiBiT degradation assay, CK1α, Procedure A; type: cell-based; settings: six hours incubation
T1 construct: CSNK1A1-HiBit KI HEK293(LgBit) Cells; host or cells: HEK293(LgBit) knock-in cells
Description: (§1) Compounds were spotted onto Cornin 384-Well, Cell Culture-Treated, Flat-Bottom, Low Flange Microplate (Fisher Scientific, Catalog #07-201-013) using a Tecan D300e digital dispenser. Ten-point dose response curves spanning from 10 μM to 0.005 μM with a 0.1% DMSO tolerance were used.
(§2) Cells were dissociated from tissue 182 cm^2 Tissue Culture Flask (CellTreat Catalog #229351) by washing the cells with PBS (Fisher Scientific Catalog #BP3994) followed by dissociation with Trypsin-EDTA (0.25%) (Thermo Scientific Catalog #25200056). Trysin was neutralized and cells were resuspended with DMEM+10% FBS. Cells were centrifuged for 5 minutes at 1200 RPMs. Cell culture media was aspirated off and cells were resuspended with DMEM+10% FBS. Cell density was determined using a Denovix CellDrop BF cell counter. Cell density was adjusted to 1×10^6 cells/ml. 40 μl of cells was added to compound treated tissue culture plates and incubated for six hours at 37° C. After six hours, cell culture plates were removed from tissue culture incubator and cooled to room temperature. 40 μl of Nano-GloHiBiT Lytic Detection Reagent (Promega, Catalog #N3040) was added to each well. Plates were placed on an orbital shaker (600 rpm) for 20 minutes. Luminescence was measured using an Envsion plate reader (Perkin Elmer). DC50 curves and Ymin were generated using a 4-parameter curve fit with GraphPad Prism software (Prism Corporation).
(§3) Results from the HiBiT assay (DC50 (nM) and Ymin (% remaining)) are shown below. All CK1α data was generated according to Procedure A. GSPT1 data for Examples 1-600, 603-620 and 703-705 was generated according to Procedure A. GSPT1 data for Examples 601, 621-702 and 706-735 was generated according to Procedure B.

GSPT1 = GSPT1 (Homo sapiens, UniProt P15170+Q96SW2); test: HiBiT degradation assay, GSPT1, Procedure A; type: cell-based; set-up: HiBit-GSPT1 KI HEK293(LgBit) Cells; host or cells: HEK293(LgBit) knock-in cells; settings: six hours incubation
Sequence of GSPT1 (P15170 whole entry): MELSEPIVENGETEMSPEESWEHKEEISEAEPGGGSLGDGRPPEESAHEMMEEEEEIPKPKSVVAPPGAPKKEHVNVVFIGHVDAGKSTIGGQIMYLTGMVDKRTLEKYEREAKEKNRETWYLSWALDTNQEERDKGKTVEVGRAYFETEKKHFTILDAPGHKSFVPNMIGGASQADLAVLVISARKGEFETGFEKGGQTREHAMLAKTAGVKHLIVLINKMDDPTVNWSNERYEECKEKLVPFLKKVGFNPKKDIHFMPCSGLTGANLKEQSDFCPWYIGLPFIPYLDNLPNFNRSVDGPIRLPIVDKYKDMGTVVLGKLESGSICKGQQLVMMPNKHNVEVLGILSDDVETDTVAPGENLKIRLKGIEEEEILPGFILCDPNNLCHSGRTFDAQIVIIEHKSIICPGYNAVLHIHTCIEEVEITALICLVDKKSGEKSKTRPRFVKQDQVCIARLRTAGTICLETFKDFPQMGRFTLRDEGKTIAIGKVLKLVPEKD
Sequence of GSPT1 (Q96SW2 whole entry): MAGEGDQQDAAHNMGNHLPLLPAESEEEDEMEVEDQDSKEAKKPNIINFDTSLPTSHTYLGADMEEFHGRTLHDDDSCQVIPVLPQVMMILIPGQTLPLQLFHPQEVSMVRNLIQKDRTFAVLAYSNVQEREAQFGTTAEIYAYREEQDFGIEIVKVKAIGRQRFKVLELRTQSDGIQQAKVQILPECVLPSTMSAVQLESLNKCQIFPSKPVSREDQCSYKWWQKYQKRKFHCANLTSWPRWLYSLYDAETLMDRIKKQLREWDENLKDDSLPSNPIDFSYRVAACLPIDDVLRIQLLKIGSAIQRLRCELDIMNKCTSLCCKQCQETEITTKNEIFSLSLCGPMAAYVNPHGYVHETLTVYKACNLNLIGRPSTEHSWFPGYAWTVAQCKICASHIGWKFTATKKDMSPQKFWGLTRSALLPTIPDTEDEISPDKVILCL
Sequence of GSPT1 (Q16531 whole entry partner): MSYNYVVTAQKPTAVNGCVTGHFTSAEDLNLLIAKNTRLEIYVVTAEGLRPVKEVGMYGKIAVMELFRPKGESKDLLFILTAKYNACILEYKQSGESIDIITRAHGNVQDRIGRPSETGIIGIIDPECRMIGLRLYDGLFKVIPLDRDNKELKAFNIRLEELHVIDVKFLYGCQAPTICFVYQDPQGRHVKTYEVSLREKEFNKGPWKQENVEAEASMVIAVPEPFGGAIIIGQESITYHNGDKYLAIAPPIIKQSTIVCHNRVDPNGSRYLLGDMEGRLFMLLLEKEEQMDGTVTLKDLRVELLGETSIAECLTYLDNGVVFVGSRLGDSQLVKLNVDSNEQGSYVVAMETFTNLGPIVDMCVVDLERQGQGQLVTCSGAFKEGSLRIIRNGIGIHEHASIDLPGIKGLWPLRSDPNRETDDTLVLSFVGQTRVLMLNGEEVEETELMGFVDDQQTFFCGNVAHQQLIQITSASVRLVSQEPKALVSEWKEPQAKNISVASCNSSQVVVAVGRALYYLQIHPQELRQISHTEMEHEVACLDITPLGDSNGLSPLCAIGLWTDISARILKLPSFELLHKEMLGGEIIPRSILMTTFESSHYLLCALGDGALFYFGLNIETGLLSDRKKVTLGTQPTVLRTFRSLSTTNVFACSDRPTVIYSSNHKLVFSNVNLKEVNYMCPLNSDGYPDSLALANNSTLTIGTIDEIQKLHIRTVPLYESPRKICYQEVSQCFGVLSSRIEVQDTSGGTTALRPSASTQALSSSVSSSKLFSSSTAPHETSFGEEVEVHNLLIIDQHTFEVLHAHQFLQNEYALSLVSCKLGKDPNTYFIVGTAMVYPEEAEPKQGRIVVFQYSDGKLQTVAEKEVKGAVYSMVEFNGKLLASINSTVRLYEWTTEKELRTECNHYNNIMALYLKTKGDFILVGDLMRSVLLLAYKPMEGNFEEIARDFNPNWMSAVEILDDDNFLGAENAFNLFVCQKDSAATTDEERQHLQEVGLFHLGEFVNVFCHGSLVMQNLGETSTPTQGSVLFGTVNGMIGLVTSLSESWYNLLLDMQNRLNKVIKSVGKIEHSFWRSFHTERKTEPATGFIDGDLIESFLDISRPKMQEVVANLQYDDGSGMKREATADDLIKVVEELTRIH
Description: as §1, §2, §3

T1 sequence (P48729 whole entry): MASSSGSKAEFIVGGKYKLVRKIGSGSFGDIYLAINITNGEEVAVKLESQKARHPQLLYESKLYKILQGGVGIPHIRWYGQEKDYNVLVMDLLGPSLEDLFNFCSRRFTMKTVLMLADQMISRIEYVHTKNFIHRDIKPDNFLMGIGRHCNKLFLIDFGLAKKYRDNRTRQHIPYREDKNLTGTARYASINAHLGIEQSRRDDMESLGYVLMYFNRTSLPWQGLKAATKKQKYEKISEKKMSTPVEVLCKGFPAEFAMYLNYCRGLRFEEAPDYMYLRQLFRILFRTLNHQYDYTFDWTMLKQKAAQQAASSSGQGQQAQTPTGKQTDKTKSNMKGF
T1 sequence (Q96SW2 whole entry): as the sequence (Q96SW2 whole entry) above
T1 sequence (Q16531 whole entry partner): as the sequence (Q16531 whole entry partner) above

Structure (SMILES)	CK1α Ymin (CK1α)	DC50 (CK1α) [nM]	DC50 (GSPT1) [nM]	GSPT1 Ymin (GSPT1)
O=C1CCC(N2Cc3cc(-c4nc[nH]c4-c4ccccc4)ccc3C2=O)C(=O)N1 (centres unmarked) [Example 13, 3-(1-Oxo-5-(5-phenyl-1H-imidazol-4-yl)isoindolin-2-yl) piperidine-2,6-dione]	C (C = 0-10% remaining)	< 25	< 25	E (E = >25-75% remaining)
O=C1CCC(N2Cc3cc(-c4ncoc4-c4ccccc4)ccc3C2=O)C(=O)N1 (centres unmarked) [Example 15, 3-(1-oxo-5-(5-phenyloxazol-4-yl)isoindolin-2-yl)piperidine-2,6-dione]	C (C = 0-10% remaining)	< 25	< 25	E (E = >25-75% remaining)
Cn1cnc(-c2cc3c(s2)C(=O)N(C2CCC(=O)NC2=O)C3)c1-c1ccccc1 (centres unmarked) [Example 16, 3-(2-(1-methyl-5-phenyl-1H-imidazol-4-yl)-6-oxo-4,6-dihydro-5H-thieno[2,3-c]pyrrol-5-yl)piperidine-2,6-dione]	E (E = >25-75% remaining)	≥ 25	≥ 25	F (F = >75-100% remaining)
Cc1nn(C)c(-c2ccc3c(c2)CN(C2CCC(=O)NC2=O)C3=O)c1-c1ccccc1 (centres unmarked) [Example 18, 3-(5-(1,3-Dimethyl-4-phenyl-1H-pyrazol-5-yl)-1-oxoisoindolin-2-yl)piperidine-2,6-dione]	E (E = >25-75% remaining)	≥ 25	≥ 25	E (E = >25-75% remaining)
Cn1cnc(-c2ccn3c(=O)n(C4CCC(=O)NC4=O)nc3c2)c1-c1ccccc1 (centres unmarked) [Example 20, 3-(7-(1-Methyl-5-phenyl-1H-imidazol-4-yl)-3-oxo-[1,2,4]triazolo[4,3-a]pyridin-2 (3H)-yl)piperidine-2,6-dione]	E (E = >25-75% remaining)	≥ 25	≥ 25	E (E = >25-75% remaining)
Cn1cnc(-c2ccccc2)c1-c1ccc2c(c1)CN(C1CCC(=O)NC1=O)C2=O (centres unmarked) [Example 21, 3-(5-(1-Methyl-4-phenyl-1H-imidazol-5-yl)-1-oxoisoindolin-2-yl)piperidine-2,6-dione]	E (E = >25-75% remaining)	≥ 25	≥ 25	C (C = 0-10% remaining)
CC(C)Cn1cnc(-c2ccc3c(c2)CN(C2CCC(=O)NC2=O)C3=O)c1-c1ccccc1 (centres unmarked) [Example 22, 3-(5-(1-Isobutyl-5-phenyl-1H-imidazol-4-yl)-1-oxoisoindolin-2-yl)piperidine-2,6-dione]	C (C = 0-10% remaining)	< 25	< 25	E (E = >25-75% remaining)
O=C1CCC(N2Cc3cc(-c4ncsc4-c4ccccc4)ccc3C2=O)C(=O)N1 (centres unmarked) [Example 23, 3-(1-Oxo-5-(5-phenylthiazol-4-yl)isoindolin-2-yl) piperidine-2,6-dione]	D (D = >10- 25% remaining)	< 25	≥ 25	E (E = >25-75% remaining)
Cn1cnc(-c2ccc3c(c2)CN([C@@H]2CCC(=O)NC2=O)C3=O)c1-c1ccc(F)cc1 [Example 24, (R)-3-(5-(5-(4-fluorophenyl)-1-methyl-1H-imidazol-4-yl)-1-oxoisoindolin-2-yl) piperidine-2,6-dione]	C (C = 0-10% remaining)	< 25	≥ 25	E (E = >25-75% remaining)
CCn1cnc(-c2ccc3c(c2)CN(C2CCC(=O)NC2=O)C3=O)c1-c1ccccc1 (centres unmarked) [Example 26, 3-(5-(1-Ethyl-5-phenyl-1H-imidazol-4-yl)-1-oxoisoindolin-2-yl)piperidine-2,6-dione]	C (C = 0-10% remaining)	< 25	< 25	E (E = >25-75% remaining)
O=C1CCC(N2Cc3cc(-c4cnn(C(F)F)c4-c4ccccc4)ccc3C2=O)C(=O)N1 (centres unmarked) [Example 27, 3-(5-(1-(difluoromethyl)-5-phenyl-1H-pyrazol-4-yl)-1-oxoisoindolin-2-yl)piperidine-2,6-dione]	D (D = >10- 25% remaining)	< 25	≥ 25	F (F = >75-100% remaining)
Cn1c(-c2ccc3c(c2)CN(C2CCC(=O)NC2=O)C3=O)cnc1-c1ccccc1 (centres unmarked) [Example 28, 3-(5-(1-methyl-2-phenyl-1H-imidazol-5-yl)-1-oxoisoindolin-2-yl)piperidine-2,6-dione]	E (E = >25-75% remaining)	≥ 25	≥ 25	F (F = >75-100% remaining)
Cc1noc(-c2ccccc2)c1-c1ccc2c(c1)CN(C1CCC(=O)NC1=O)C2=O (centres unmarked) [Example 29, 3-(5-(3-Methyl-5-phenylisoxazol-4-yl)-1-oxoisoindolin-2-yl)piperidine-2,6-dione]	F (F = >75-100% remaining)	≥ 25	≥ 25	F (F = >75-100% remaining)
Cc1n[nH]c(-c2ccccc2)c1-c1ccc2c(c1)CN(C1CCC(=O)NC1=O)C2=O (centres unmarked) [Example 30, 3-(5-(3-Methyl-5-phenyl-1H-pyrazol-4-yl)-1-oxoisoindolin-2-yl) piperidine-2,6-dione]	E (E = >25-75% remaining)	≥ 25	≥ 25	F (F = >75-100% remaining)
O=C1CCC(N2Cc3cc(-c4sncc4-c4ccccc4)ccc3C2=O)C(=O)N1 (centres unmarked) [Example 31, 3-(1-Oxo-5-(4-phenylisothiazol-5-yl)isoindolin-2-yl) piperidine-2,6-dione]	E (E = >25-75% remaining)	≥ 25	≥ 25	F (F = >75-100% remaining)
O=C1CCC(N2Cc3cc(-n4nccc4-c4ccccc4)ccc3C2=O)C(=O)N1 (centres unmarked) [Example 33, 3-(1-Oxo-5-(5-phenyl-1H-pyrazol-1-yl)isoindolin-2-yl)piperidine-2,6-dione]	E (E = >25-75% remaining)	< 25	≥ 25	E (E = >25-75% remaining)
Cn1nc(-c2ccccc2)cc1-c1ccc2c(c1)CN(C1CCC(=O)NC1=O)C2=O (centres unmarked) [Example 35, 3-(5-(1-Methyl-3-phenyl-1H-pyrazol-5-yl)-1-oxoisoindolin-2-yl)piperidine-2,6-dione]	F (F = >75-100% remaining)	≥ 25	≥ 25	F (F = >75-100% remaining)
O=C1CCC(N2Cc3cc(-c4c[nH]nc4-c4ccncc4)ccc3C2=O)C(=O)N1 (centres unmarked) [Example 38, 3-(1-Oxo-5-(3-(pyridin-4-yl)-1H-pyrazol-4-yl)isoindolin-2-yl)piperidine-2,6-dione]	E (E = >25-75% remaining)	≥ 25	≥ 25	F (F = >75-100% remaining)
O=C1CCC(N2Cc3cc(-c4nc(-c5ccccc5)co4)ccc3C2=O)C(=O)N1 (centres unmarked) [Example 42, 3-(1-Oxo-5-(4-phenyloxazol-2-yl)isoindolin-2-yl)piperidine-2,6-dione]	E (E = >25-75% remaining)	< 25	≥ 25	F (F = >75-100% remaining)
Cn1c(C2CC2)nc(-c2ccc3c(c2)CN(C2CCC(=O)NC2=O)C3=O)c1-c1cccnc1 (centres unmarked) [Example 44, 3-(5-(2-Cyclopropyl-1-methyl-5-(pyridin-3-yl)-1H-imidazol-4-yl)-1-oxoisoindolin-2-yl)piperidine-2,6-dione]	C (C = 0-10% remaining)	< 25	≥ 25	F (F = >75-100% remaining)
Cn1c(C2CC2)nc(-c2ccc3c(c2)CN(C2CCC(=O)NC2=O)C3=O)c1-c1ccncc1 (centres unmarked) [Example 45, 3-(5-(2-Cyclopropyl-1-methyl-5-(pyridin-4-yl)-1H-imidazol-4-yl)-1-oxoisoindolin-2-yl)piperidine-2,6-dione]	C (C = 0-10% remaining)	< 25	≥ 25	F (F = >75-100% remaining)
O=C1CCC(N2Cc3cc(-c4c[nH]nc4C4CC4)ccc3C2=O)C(=O)N1 (centres unmarked) [Example 47, 3-(5-(3-Cyclopropyl-1H-pyrazol-4-yl)-1-oxoisoindolin-2-yl)piperidine-2,6-dione]	E (E = >25-75% remaining)	≥ 25	≥ 25	F (F = >75-100% remaining)
Cn1c(C2CCCCC2)nc(-c2ccc3c(c2)CN(C2CCC(=O)NC2=O)C3=O)c1-c1ccccc1 (centres unmarked) [Example 49, 3-(5-(2-Cyclohexyl-1-methyl-5-phenyl-1H-imidazol-4-yl)-1-oxoisoindolin-2-yl)piperidine-2,6-dione]	C (C = 0-10% remaining)	< 25	< 25	F (F = >75-100% remaining)
